Measurements from patent publication US6191124A, “Methanol derivatives for treatment of retroviral infections especially HIV infections” (priority 1997, dated 2001).
Read-outs that look alike come from different tables or passages of the source.

Biological target: HIV-1 protease (Human immunodeficiency virus type 1 group M subtype B, UniProt P04585)
Assay: HIV protease screening assay (fluorescently labeled biotinylated substrate, streptavidin beads), percent inhibition
Type: biochemical
Protocol: The HIV protease screening assay is based on fluorescently labeled substrate which can be resolved from nonlabeled cleavage product using special beads coated with streptavidin. The substrate is biotinylated at the amino terminal arginine and fluorescently labeled with fluorescein isothiocynate (FITC) at the carboxyl terminal lysine. This assay has been employed to detect novel, nonpeptidic inhibitors of HIV-1 protease. Substrate (20 μl of 0.2 μM), sample (10 μl of desired concentration), and enzyme (10 μl of 0.1 μM) are added to a 96 well pandex plate. The assay is run in 0.1 M sodium acetate buffer at pH 5.5 in the presence of 1.0 M sodium chloride and 0.05% NP-40 with incubated in the dark for one hour at room temperature. Strepavidin coated polystyrene beads {40 μl of 0.1% (w/v)} are added and the plate is incubated in the dark for an additional half hour. The labeled cleavage product is separated from the unreacted substrate via filtration and is read on the Idexx screen machine. The data are analyzed by appropriate computer algorithms to ascertain percent inhibition values.

[1] = 10 μM (Table 1), read-out: % Protease Inhibition
[2] = 10 μM (Table 3), read-out: % Protease Inhibition
[3] = 10 μM (Table 2), read-out: % Protease Inhibition
[4] = 3.3 μM (Table 5), read-out: % HIV Protease Inhibition
[5] = 10 μM (Table 5), read-out: % HIV Protease Inhibition
[6] = 1.1 μM (Table 7), read-out: PROTEASE INHIBITION
[7] = 3.3 μM (Table 7), read-out: PROTEASE INHIBITION
[8] = 10 μM (Table 7), read-out: PROTEASE INHIBITION
[9] = 1.1 μM (Table 6), read-out: PROTEASE INHIBITION
[10] = 3.3 μM (Table 6), read-out: PROTEASE INHIBITION
[11] = 1.1 μM (Table 8), read-out: PROTEASE INHIBITION
[12] = 3.3 μM (Table 8), read-out: PROTEASE INHIBITION
[13] = 10 μM (Table 8), read-out: PROTEASE INHIBITION
[14] = 3.3 μM (Table 9), read-out: PROTEASE INHIBITION
[15] = 10 μM (Table 9), read-out: PROTEASE INHIBITION

## Cc1sc2ncc(C(O)C#Cc3ccccc3)n2c1C (stereo not drawn) [Example 1, 2,3-Dimethyl-α-(2-phenylethynyl)imidazo-[2,1-b]thiazole-5-methanol]
[1]
  inhibition at 10 µM: 16%
3.3-3.7 μM (Table 1)
  % Protease Inhibition: < 10%

## Cc1sc2ncc(C(O)Cc3ccccc3)n2c1C (stereo not drawn) [Example 2, 2,3-Dimethyl-α-(2-phenylmethyl)imidazo-[2,1-b]thiazole-5-methanol]
[1]
  inhibition at 10 µM: 86%
1.1-1.3 μM (Table 1)
  % Protease Inhibition: < 10%
3.3-3.7 μM (Table 1)
  % Protease Inhibition: 27%

## Cc1csc2ncc(C(C)(O)/C=C/c3ccccc3)n12 (stereo not drawn) [Example 5, α,3-Dimethyl-α-(E-2-phenyl-E-ethenyl)imidazo[2,1-b]thiazole-5-methanol]
[2]
  inhibition at 10 µM: < 10%
30 μM (Table 3 footnote)
  inhibition at 30 µM: 48.9%
1-1.2 μM (Table 3)
  % Protease Inhibition: < 10%
3.3-3.7 μM (Table 3)
  % Protease Inhibition: < 10%

## Cc1csc2ncc(C(O)CC(C)c3ccccc3)n12 (stereo not drawn) [Example 6, 3-Methyl-α-(2-phenylpropyl)imidazo[2,1-b]thiazole-5-methanol]
[3]
  inhibition at 10 µM: 51%
1.1-1.3 μM (Table 2)
  % Protease Inhibition: < 10%
3.3-3.7 μM (Table 2)
  % Protease Inhibition: < 10%

## Cc1csc2ncc(C(C)(O)CCc3ccccc3)n12 (stereo not drawn) [Example 7, α,3-Dimethyl-α-(2-phenylethyl)imidazo[2,1-b]thiazole-5-methanol]
[2]
  inhibition at 10 µM: 14.5%
1-1.2 μM (Table 3)
  % Protease Inhibition: < 10%
3.3-3.7 μM (Table 3)
  % Protease Inhibition: < 10%

## Cc1csc2ncc(C(O)CCc3ccccc3)n12 (stereo not drawn) [Example 8, 3-Methyl-α-(2-phenylethyl)imidazo[2,1-b]thiazole-5-methanol]
[3]
  inhibition at 10 µM: 79%
1.1-1.3 μM (Table 2)
  % Protease Inhibition: < 10%
3.3-3.7 μM (Table 2)
  % Protease Inhibition: 32%

## Cc1csc2ncc(C(O)CCc3ccc(Br)cc3)n12 (stereo not drawn) [Example 9, 3-Methyl-α-(4-bromophenylethyl)imidazo[2,1-b]thiazole-5-methanol]
[3]
  inhibition at 10 µM: 83%
1.1-1.3 μM (Table 2)
  % Protease Inhibition: < 10%
3.3-3.7 μM (Table 2)
  % Protease Inhibition: 22%

## Cc1csc2ncc(C(O)CCCCc3ccccc3)n12 (stereo not drawn) [Example 10, 3-Methyl-α-(4-phenylbutyl)imidazo-[2,1-b]thiazole-5-methanol]
[3]
  inhibition at 10 µM: 58%
1.1-1.3 μM (Table 2)
  % Protease Inhibition: < 10%
3.3-3.7 μM (Table 2)
  % Protease Inhibition: 12%

## OC(CCc1ccccc1)c1cnc2sc3c(n12)CCC3 (stereo not drawn) [Example 13, 6,7-Dihydro-α-(2-phenylethyl)-5H-cyclopent[d]imidazo[2,1-b]thiazole-3-methanol]
1.1 μM (Table 4), read-out: Protease Inhibition, % Inhibition
  inhibition at 1.1 µM: 39%

## OC(CCc1ccccc1)c1cnc2sc3ccccc3n12 (stereo not drawn) [Example 18, α-(2-phenylethyl)-imidazo[2,1-b]benzothiazole-3-methanol]
[4]
  inhibition at 3.3 µM: 28%
[5]
  inhibition at 10 µM: 94%

## Cc1ccc2c(c1)sc1ncc(C(O)CCc3ccccc3)n12 (stereo not drawn) [Example 19, 7-Methyl-α-(2-phenylethyl)imidazo[2,1-b]benzothiazole-3-methanol]
[4]
  inhibition at 3.3 µM: 59%
[5]
  inhibition at 10 µM: 92%

## OC(CCc1ccccc1)c1cnc2sc3cc(F)ccc3n12 (stereo not drawn) [Example 20, 7-Fluoro-α-(2-phenylethyl)imidazo[2,1-b]benzothiazole-3-methanol]
[4]
  inhibition at 3.3 µM: 43%
[5]
  inhibition at 10 µM: 88%

## COc1ccc2c(c1)sc1ncc(C(O)CCc3ccccc3)n12 (stereo not drawn) [Example 21, 7-Methoxy-α-(2-phenylethyl)imidazo[2,1-b]benzothiazole-3-methanol]
[4]
  inhibition at 3.3 µM: 80%
[5]
  inhibition at 10 µM: 93%

## OC(/C=C/c1cccc(F)c1)c1cnc2sc3c(n12)CCCCC3 (stereo not drawn) [Example 22, α-[2-(3-Fluorophenyl)ethenyl]-6,7,8,9-tetrahydro-5H-imidazo[2,1-b]thiazole-3-methanol]
[6]
  inhibition at 1.1 µM: 24%
[7]
  inhibition at 3.3 µM: 57%
[8]
  inhibition at 10 µM: 66%

## OC(CCc1cccc(F)c1)c1cnc2sc3c(n12)CCCCC3 (stereo not drawn) [Example 23, α-[2-(3-Fluorophenyl)ethyl]-6,7,8,9-tetrahydro-5H-cyclohept[d]imidazo[2,1-b]thiazol-3-methanol]
[9]
  inhibition at 1.1 µM: 35%
[10]
  inhibition at 3.3 µM: 64%

## OC(CCc1ccc(F)cc1)c1cnc2sc3c(n12)CCCCC3 (stereo not drawn) [Example 24, α-[2-(4-Fluorophenyl)ethyl]-6,7,8,9-tetrahydro-5H-cyclohept[d]imidazo[2,1-b]thiazol-3-methanol]
[9]
  inhibition at 1.1 µM: 53%
[10]
  inhibition at 3.3 µM: 77%

## OC(/C=C/c1ccc(F)cc1)c1cnc2sc3c(n12)CCCCC3 (stereo not drawn) [Example 25, α-[2-(4-Fluorophenyl)ethenyl]-6,7,8,9-tetrahydro-5H-cyclohept[d]imidazo[2,1-b]thiazol-3-methanol]
[6]
  inhibition at 1.1 µM: 23%
[7]
  inhibition at 3.3 µM: 33%
[8]
  inhibition at 10 µM: 21%

## OC(CCc1cccc(Br)c1)c1cnc2sc3c(n12)CCCCC3 (stereo not drawn) [Example 26, α-[2-(3-Bromophenyl)ethyl]-6,7,8,9-tetrahydro-5H-cyclohept[d]imidazo-[2,1-b]thiazol-3-methanol]
[9]
  inhibition at 1.1 µM: 4.8%
[10]
  inhibition at 3.3 µM: 80%

## OC(CCc1cccc(Cl)c1)c1cnc2sc3c(n12)CCCCC3 (stereo not drawn) [Example 27, α-[2-(3-Chlorophenyl)ethyl]-6,7,8,9-tetrahydro-5H-cyclohept[d]imidazo[2,1-b]thiazol-3-methanol]
[9]
  inhibition at 1.1 µM: 55%
[10]
  inhibition at 3.3 µM: 98%

## OC(CCc1cc(F)cc(F)c1)c1cnc2sc3c(n12)CCCCC3 (stereo not drawn) [Example 28, α-[2-(3,5-Difluorophenyl)ethyl]-1-6,7,8,9-tetrahydro-5H-cyclohept[d]-imidazothiazol-3-methanol]
[9]
  inhibition at 1.1 µM: 64%
[10]
  inhibition at 3.3 µM: 88%

## CN(C)c1ccc(CCC(O)c2cnc3sc4c(n23)CCCCC4)cc1 (centres unmarked) [Example 29]
[9]
  inhibition at 1.1 µM: 24%
[10]
  inhibition at 3.3 µM: 70%

## CN(C)c1ccc(/C=C/C(O)c2cnc3sc4c(n23)CCCCC4)cc1 (stereo not drawn) [Example 30, α-[2-(4-Dimethylaminophenyl)ethenyl]-6,7,8,9-tetrahydro-5H-cyclohept[d]-imidazo[2,1-b]thiazol-3-methanol]
[7]
  inhibition at 3.3 µM: < 10%
[8]
  inhibition at 10 µM: 24%

## Cc1ccc(S(=O)(=O)Nc2cccc(CCC(O)c3cnc4sc(C)c(C)n34)c2)cc1 (centres unmarked) [Example 31]
[11]
  inhibition at 1.1 µM: 15%
[12]
  inhibition at 3.3 µM: 68%
[13]
  inhibition at 10 µM: 98%

## Cc1ccc(S(=O)(=O)Nc2cccc(/C=C/C(O)c3cnc4sc(C)c(C)n34)c2)cc1 (centres unmarked) [Example 32]
[14]
  inhibition at 3.3 µM: < 10%
[15]
  inhibition at 10 µM: 15%

## Cc1ccc(S(=O)(=O)Nc2ccccc2CCC(O)c2cnc3sc(C)c(C)n23)cc1 (centres unmarked) [Example 33]
[11]
  inhibition at 1.1 µM: < 10%
[12]
  inhibition at 3.3 µM: 52%
[13]
  inhibition at 10 µM: 97%

## OC(CCc1cccc(F)c1F)c1cnc2sc3c(n12)CCCCC3 (stereo not drawn) [Example 34, α-[2-(2,3-Difluorophenyl)ethyl]-6,7,8,9-tetrahydro-5H-cyclohept[d]imidazothiazol-3-methanol]
[9]
  inhibition at 1.1 µM: 58%
[10]
  inhibition at 3.3 µM: 99%

## COc1ccc(CCC(O)c2cnc3sc4c(n23)CCCCC4)cc1 (stereo not drawn) [Example 35, α-[2-(4-methoxyphenyl)ethyl]-6,7,8,9-tetrahydro-5H-cyclohept-[d]imidazo[2,1-b]thiazol-3-methanol]
[9]
  inhibition at 1.1 µM: 63%
[10]
  inhibition at 3.3 µM: 81%

## COc1ccc(/C=C/C(O)c2cnc3sc4c(n23)CCCCC4)cc1 (stereo not drawn) [Example 36, α-[2-(4-Methoxyphenyl)ethenyl]-6,7,8,9-tetrahydro-5H-cyclohept-[d]imidazo[2,1-b]thiazol-3-methanol]
[6]
  inhibition at 1.1 µM: 15%
[7]
  inhibition at 3.3 µM: 52%
[8]
  inhibition at 10 µM: 42%

## OC(CCc1ccc2ccccc2c1)c1cnc2sc3c(n12)CCCCC3 (stereo not drawn) [Example 37, α-[2-(2-Naphthalenyl)ethyl]-6,7,8,9-tetrahydro-5H-cyclohept[d]imidazo[2,1-b]thiazol-3-methanol]
[9]
  inhibition at 1.1 µM: 51%
[10]
  inhibition at 3.3 µM: 80%

## OC(/C=C/c1ccco1)c1cnc2sc3c(n12)CCCCC3 (stereo not drawn) [Example 38, α-[2-(2-Furanyl)ethenyl]-6,7,8,9-tetrahydro-5H-cyclohept[d]imidazo[2,1-b]thiazol-3-methanol]
[6]
  inhibition at 1.1 µM: 12%
[7]
  inhibition at 3.3 µM: 60%
[8]
  inhibition at 10 µM: 98%

## OC(CCc1ccco1)c1cnc2sc3c(n12)CCCCC3 (stereo not drawn) [Example 39, α-[2-(2-Furanyl)ethyl]-6,7,8,9-tetrahydro-5H-cyclohept[d]imidazo[2,1-b]thiazol-3-methanol]
[9]
  inhibition at 1.1 µM: 54%
[10]
  inhibition at 3.3 µM: 85%

## Cc1sc2ncc(C(O)/C=C/c3ccco3)n2c1C (stereo not drawn) [Example 41, α-[2-(2-Furanyl)ethenyl]2,3-dimethylimidazo[2,1-b]thiazol-3-methanol]
[14]
  inhibition at 3.3 µM: 19%
[15]
  inhibition at 10 µM: 81%

## Cc1sc2ncc(C(O)CCc3ccco3)n2c1C (centres unmarked) [Example 42]
[11]
  inhibition at 1.1 µM: < 10%
[12]
  inhibition at 3.3 µM: 46%
[13]
  inhibition at 10 µM: 92%
